From PubChem BioAssay (NCI)
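These data come from cells grown in 96-well plates and exposed to compound for 48 hours at five concentrations. TGI is the concentration that stops growth completely.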

Tests used:
Test in all cases: NCI-60 cell line screen, 48 h
[1] = tested on: SK-MEL-5 melanoma
[2] = tested on: HCT-15 colon
[3] = tested on: SF-295 CNS
[4] = tested on: A498 renal
[5] = tested on: A549 NSCLC
[6] = tested on: ACHN renal
[7] = tested on: MCF7 breast
[8] = tested on: MDA-MB-231 breast
[9] = tested on: K-562 leukemia
[10] = tested on: TK-10 renal
[11] = tested on: RPMI-8226 leukemia
[12] = tested on: DU-145 prostate
[13] = tested on: U251 CNS
[14] = tested on: HOP-62 NSCLC
[15] = tested on: SW-620 colon
[16] = tested on: CAKI-1 renal
[17] = tested on: LOX IMVI melanoma
[18] = tested on: NCI-H226 lung
[19] = tested on: SN12C renal
[20] = tested on: UACC-62 melanoma
[21] = tested on: PC-3 prostate
[22] = tested on: HOP-92 NSCLC
[23] = tested on: NCI-H23 lung
[24] = tested on: HS 578T breast
[25] = tested on: MDA-MB-435
[26] = tested on: NCI-H460 lung
[27] = tested on: MALME-3M melanoma
[28] = tested on: SK-MEL-2 melanoma
[29] = tested on: SNB-75 CNS
[30] = tested on: OVCAR-8 ovarian
[31] = tested on: CCRF-CEM leukemia
[32] = tested on: EKVX NSCLC
[33] = tested on: HCT-116 colon
[34] = tested on: IGROV1 ovarian
[35] = tested on: T-47D breast
[36] = tested on: OVCAR-4 ovarian
[37] = tested on: HCC-2998 colon
[38] = tested on: SK-OV-3 ovarian
[39] = tested on: BT-549 breast
[40] = tested on: KM12 colon
[41] = tested on: NCI-H522 lung
[42] = tested on: COLO 205 colon
[43] = tested on: M14 melanoma
[44] = tested on: SNB-19 CNS
[45] = tested on: SK-MEL-28 melanoma
[46] = tested on: 786-0 renal
[47] = tested on: UO-31 renal
[48] = tested on: HL-60(TB) leukemia
[49] = tested on: RXF 393 renal
[50] = tested on: UACC-257 melanoma
[51] = tested on: SF-539 CNS
[52] = tested on: OVCAR-3 ovarian
[53] = tested on: HT29 colon
[54] = tested on: NCI/ADR-RES ovarian
[55] = tested on: SF-268 CNS
[56] = tested on: MOLT-4 leukemia
[57] = tested on: OVCAR-5 ovarian
[58] = tested on: SR leukemia

ClCCN(CCCl)c1ccc(/C=N/Nc2ccnc3ccccc23)cc1
TGI [1]: 3.47 µM
TGI [2]: 2.86 µM
TGI [3]: 2.99 µM
TGI [4]: 46.7 µM
TGI [5]: 3.38 µM
TGI [6]: 3.37 µM
TGI [7]: > 100 µM
TGI [8]: 3.45 µM
TGI [9]: 3.15 µM
TGI [10]: 3.15 µM
TGI [11]: 3.97 µM
TGI [12]: 3.5 µM
TGI [13]: 3.03 µM
TGI [14]: 4.75 µM
TGI [15]: 4.48 µM
TGI [16]: 3.8 µM
TGI [17]: 3.09 µM
TGI [18]: 3.48 µM
TGI [19]: 3.18 µM
TGI [20]: 3.23 µM
TGI [21]: 2.99 µM
TGI [22]: 3.38 µM
TGI [23]: 3.89 µM
TGI [24]: 5.1 µM
TGI [25]: 3.14 µM
TGI [26]: > 100 µM
TGI [27]: 3.19 µM

O=[N+]([O-])c1cccc2nc3ccccc3c(NCCCNc3c4ccccc4nc4cccc([N+](=O)[O-])c34)c12
TGI [1]: 0.0221 µM
TGI [28]: 0.13 µM
TGI [29]: 0.277 µM
TGI [3]: 1.5 µM
TGI [5]: 0.166 µM
TGI [6]: 0.0135 µM
TGI [30]: 0.131 µM
TGI [31]: 0.162 µM
TGI [8]: 0.0311 µM
TGI [32]: 0.0975 µM
TGI [33]: < 0.01 µM
TGI [34]: 0.967 µM
TGI [10]: < 0.01 µM
TGI [35]: 0.407 µM
TGI [36]: 0.302 µM
TGI [37]: 0.0223 µM
TGI [38]: 1.59 µM
TGI [13]: 0.181 µM
TGI [39]: 0.441 µM
TGI [14]: 0.0844 µM
TGI [15]: > 100 µM
TGI [16]: 0.118 µM
TGI [17]: > 100 µM
TGI [18]: 11.7 µM
TGI [19]: 0.0976 µM
TGI [40]: 0.073 µM
TGI [20]: 0.245 µM
TGI [41]: 0.121 µM
TGI [42]: < 0.01 µM
TGI [21]: 0.143 µM
TGI [22]: < 0.01 µM
TGI [43]: 0.0744 µM
TGI [44]: 0.163 µM
TGI [45]: 0.181 µM
TGI [46]: < 0.01 µM
TGI [47]: 0.143 µM
TGI [23]: 0.248 µM
TGI [48]: 0.328 µM
TGI [49]: < 0.01 µM
TGI [50]: 0.329 µM
TGI [51]: 0.149 µM
TGI [52]: 0.0906 µM
TGI [53]: < 0.01 µM
TGI [25]: 0.141 µM
TGI [54]: 1.19 µM
TGI [27]: 0.329 µM
TGI [55]: 0.0387 µM
TGI [56]: 0.0972 µM

[N-]=[N+]=NI1OC(=O)c2ccccc21
TGI [2]: > 100 µM
TGI [28]: > 100 µM
TGI [29]: > 100 µM
TGI [3]: > 100 µM
TGI [4]: > 100 µM
TGI [5]: > 100 µM
TGI [6]: > 100 µM
TGI [30]: > 100 µM
TGI [7]: > 100 µM
TGI [31]: > 100 µM
TGI [8]: > 100 µM
TGI [32]: > 100 µM
TGI [9]: > 100 µM
TGI [33]: > 100 µM
TGI [34]: > 100 µM
TGI [10]: > 100 µM
TGI [35]: > 100 µM
TGI [36]: > 100 µM
TGI [11]: 65.7 µM
TGI [37]: > 100 µM
TGI [12]: > 100 µM
TGI [38]: > 100 µM
TGI [57]: > 100 µM
TGI [13]: > 100 µM
TGI [14]: > 100 µM
TGI [15]: > 100 µM
TGI [16]: 46.9 µM
TGI [17]: > 100 µM
TGI [18]: > 100 µM
TGI [19]: > 100 µM
TGI [40]: > 100 µM
TGI [20]: > 100 µM
TGI [41]: 40.6 µM
TGI [42]: > 100 µM
TGI [21]: > 100 µM
TGI [22]: > 100 µM
TGI [43]: > 100 µM
TGI [44]: > 100 µM
TGI [45]: > 100 µM
TGI [58]: > 100 µM
TGI [46]: > 100 µM
TGI [47]: > 100 µM
TGI [23]: > 100 µM
TGI [48]: 84 µM
TGI [49]: > 100 µM
TGI [50]: > 100 µM
TGI [51]: > 100 µM
TGI [52]: > 100 µM
TGI [53]: > 100 µM
TGI [24]: > 100 µM
TGI [25]: > 100 µM
TGI [54]: > 100 µM
TGI [55]: > 100 µM
TGI [56]: > 100 µM
